pIC50: −log10 of the molar value. Activity calls are given as the source filed them. The rule behind the calls is not given here.
Assays:
Leishmania donovani [1] = test: Antileishmanial activity against Leishmania donovani amastigotes infected in J774 macrophage assessed as inhibition of parasite growth incubated for 48 hrs by luciferase assay; format: functional, organism-based; settings: J774, 48 h
J774 [2] = test: Cytotoxicity against mouse J774 macrophage incubated for 72 hrs by MTT assay; format: functional
[3] = Selectivity index, ratio of CC50 for mouse J774 macrophage to IC50 for Leishmania donovani amastigotes infected in J774 macrophage; format: toxicity; settings: J774 macrophages, read-out: Ratio CC50/IC50
Leishmania donovani [4] = test: Antileishmanial activity against Leishmania donovani amastigotes infected in J774 macrophage assessed as inhibition of parasite growth at 25 uM incubated for 48 hrs by luciferase assay relative to control; format: functional; parameters: scale not given: the % may be the effect or the level left
[5] = Stability of the compound in stimulated gastric fluid at 10 ug/ml at pH 1.2 measured upto 120 min by HPLC analysis; format: ADME; settings: simulated gastric fluid, at 10 µg/mL, read-out: Stability
[6] = Stability of the compound in Tris-buffer at 10 ug/ml at pH 7.4 measured upto 120 min by HPLC analysis; format: physicochemical; settings: at 10 µg/mL, read-out: Stability
Leishmania donovani [7] = test: Antileishmanial activity against amastigote form of Leishmania donovani infected in BALB/c mouse assessed as inhibition of parasite growth in liver at 10 mg/kg, po measured after 1 week post treatment by geimsa staining based analysis relative to control; format: functional; parameters: scale not given: the % may be the effect or the level left; settings: time 1 weeks
Leishmania donovani [8] = test: Antileishmanial activity against amastigote form of Leishmania donovani infected in BALB/c mouse assessed as inhibition of parasite growth in liver at 20 mg/kg, po measured after 1 week post treatment by geimsa staining based analysis relative to control; format: functional; parameters: scale not given: the % may be the effect or the level left; settings: time 1 weeks
Leishmania donovani [9] = test: Antileishmanial activity against amastigote form of Leishmania donovani infected in BALB/c mouse assessed as inhibition of parasite growth in spleen at 10 mg/kg, po measured after 1 week post treatment by geimsa staining based analysis relative to control; format: functional; parameters: scale not given: the % may be the effect or the level left; settings: time 1 weeks
Leishmania donovani [10] = test: Antileishmanial activity against amastigote form of Leishmania donovani infected in BALB/c mouse assessed as inhibition of parasite growth in liver at 40 mg/kg, po measured after 1 week post treatment by geimsa staining based analysis relative to control; format: functional; parameters: scale not given: the % may be the effect or the level left; settings: time 1 weeks
Leishmania donovani [11] = test: Antileishmanial activity against amastigote form of Leishmania donovani infected in BALB/c mouse assessed as inhibition of parasite growth in spleen at 40 mg/kg, po measured after 1 week post treatment by geimsa staining based analysis relative to control; format: functional; parameters: scale not given: the % may be the effect or the level left; settings: time 1 weeks
[12] = Toxicity in BALB/c mouse assessed as effect on body weight at 10 to 40 mg/kg, po measured after 1 week; format: organism-based; settings: in vivo, 168 h, dose 10-40 mg/kg, time 1 weeks
Splenocyte = test: Immunostimulatory activity in mouse splenocyte assessed as decrease in IL-10 secretion at 10 to 40 mg/kg measured after 1 week by RT-PCR analysis relative to control; format: functional; parameters: scale not given: the % may be the effect or the level left; settings: dose 10-40 mg/kg, time 1 weeks
Leishmania donovani [13] = test: Antileishmanial activity against Leishmania donovani infected in golden hamster assessed as inhibition of parasite growth in liver at 40 mg/kg, po administered for 7 days and measured after 28 days by giemsa staining based analysis relative to control; format: functional; parameters: scale not given: the % may be the effect or the level left; settings: time 28 day
Leishmania donovani [14] = test: Antileishmanial activity against Leishmania donovani infected in golden hamster assessed as inhibition of parasite growth in spleen at 40 mg/kg, po administered for 7 days and measured after 28 days by giemsa staining based analysis relative to control; format: functional; parameters: scale not given: the % may be the effect or the level left; settings: time 28 day
Leishmania donovani [15] = test: Antileishmanial activity against Leishmania donovani infected in golden hamster assessed as inhibition of parasite growth in liver at 80 mg/kg, po administered for 7 days and measured after 28 days by giemsa staining based analysis relative to control; format: functional; parameters: scale not given: the % may be the effect or the level left; settings: time 28 day
Leishmania donovani [16] = test: Antileishmanial activity against Leishmania donovani infected in golden hamster assessed as inhibition of parasite growth in spleen at 80 mg/kg, po administered for 7 days and measured after 28 days by giemsa staining based analysis relative to control; format: functional; parameters: scale not given: the % may be the effect or the level left; settings: time 28 day
[17] = Toxicity in golden hamster infected with Leishmania donovani assessed as reduction in serum AST level at 40 mg/kg ,po and measured after 28 days post infection (reference value: 82.72 IU/L); format: organism-based, Mesocricetus auratus; settings: in vivo, 672 h, time 28 day
[18] = Toxicity in golden hamster infected with Leishmania donovani assessed as reduction in serum ALT level at 40 mg/kg ,po and measured after 28 days post infection (reference value: 81.58 IU/L); format: organism-based, Mesocricetus auratus; settings: in vivo, 672 h, time 28 day
[19] = Renal toxicity in golden hamster assessed as effect on creatinine level at 40 mg/kg, po measured after 28 days post infection; format: organism-based, Mesocricetus auratus; settings: in vivo, 672 h, time 28 day
[20] = Renal toxicity in golden hamster assessed as effect on urea level at 40 mg/kg, po measured after 28 days post infection; format: organism-based, Mesocricetus auratus; settings: in vivo, 672 h, time 28 day
J774 [21] = test: Immunostimulatory activity in mouse J774 macrophage infected with Leishmania donovani assessed as fold increase in IL-12 level at 25 uM measured after 24 hrs by RT-PCR analysis; format: functional
Leishmania donovani [22] = test: Induction of cell cycle arrest in Leishmania donovani promastigotes assessed as accumulation of cells at G1 phase at 25 uM measured after 8 hrs by PI staining based flow cytometry analysis (reference value: 35.7%); format: functional
Leishmania donovani [23] = test: Induction of cell cycle arrest in Leishmania donovani promastigotes assessed as accumulation of cells at G1 phase at 25 uM measured after 12 hrs by PI staining based flow cytometry analysis (reference value: 35.7%); format: functional
Leishmania donovani [24] = test: Induction of cell cycle arrest in Leishmania donovani promastigotes assessed as accumulation of cells at G1 phase at 25 uM measured after 24 hrs by PI staining based flow cytometry analysis (reference value: 35.7%); format: functional
Leishmania donovani [25] = test: Induction of cell cycle arrest in Leishmania donovani promastigotes assessed as accumulation of cells at G2/M phase at 25 uM measured after 4 hrs by PI staining based flow cytometry analysis (reference value: 35.7%); format: functional
Leishmania donovani [26] = test: Induction of cell cycle arrest in Leishmania donovani promastigotes assessed as accumulation of cells at G2/M phase at 25 uM measured after 8 hrs by PI staining based flow cytometry analysis (reference value: 35.7%); format: functional
Leishmania donovani [27] = test: Induction of cell cycle arrest in Leishmania donovani promastigotes assessed as accumulation of cells at G2/M phase at 25 uM measured after 12 hrs by PI staining based flow cytometry analysis (reference value: 35.7%); format: functional
Leishmania donovani [28] = test: Induction of autophagy in Leishmania donovani promastigotes assessed as appearance of lipid droplets in cytoplasm at 25 uM measured after 24 hrs by Nile red staining based fluorescence microscopic analysis; format: functional, organism-based
Leishmania donovani [29] = test: Antileishmanial activity against Leishmania donovani promastigotes at 25 uM measured after 12 hrs in presence of antipain by luciferase assay relative to control; format: functional
Leishmania donovani [30] = test: Induction of autophagy in Leishmania donovani promastigotes assessed as fold induction of ATG5 gene at 25 uM measured after 24 hrs by RT-PCR analysis; format: functional
Leishmania donovani [31] = test: Induction of autophagy in Leishmania donovani promastigotes assessed as fold induction of ATG8 gene at 25 uM measured after 24 hrs by RT-PCR analysis; format: functional
Leishmania donovani [32] = test: Induction of autophagy in Leishmania donovani promastigotes assessed as fold induction of ATG12 gene at 25 uM measured after 24 hrs by RT-PCR analysis; format: functional
Leishmania donovani [33] = test: Induction of autophagy in Leishmania donovani promastigotes assessed as fold increase in Sir2 transcript level at 25 uM measured after 24 hrs by RT-PCR analysis; format: functional

remaining at 2 h, 10 ug/ml [5]: 94.5%
remaining at 2 h, 10 ug/ml [6]: 95.5%
Compound: Cn1c(-c2ccc(OCC(=O)Nc3ccccn3)cc2)nc2ccccc2c1=O
pIC50 (Leishmania donovani [1]): 5.45
CC50 (J774 [2]): 65 µM
selectivity ratio [3]: 18.3
Activity (Leishmania donovani [4]): 82.68%
Activity (Leishmania donovani [7]): >50%
Activity (Leishmania donovani [8]): >50%
Activity (Leishmania donovani [9]): >50%
Activity (Leishmania donovani [10]): 85.4%
Activity (Leishmania donovani [11]): 86.3%
Activity [12]: Non-Toxic
Activity (Splenocyte): 47.69%
Activity (Leishmania donovani [13]): 66.7%
Activity (Leishmania donovani [14]): 68.4%
Activity (Leishmania donovani [15]): 86.5%
Activity (Leishmania donovani [16]): 85.8%
Activity [17]: 123.38 IU/L
Activity [18]: 101.88 IU/L
Activity [19]: Non-Toxic
Activity [20]: Non-Toxic
fold change (FC) (J774 [21]): 3.4
Activity (Leishmania donovani [22]): 55.5%
Activity (Leishmania donovani [23]): 65.8%
Activity (Leishmania donovani [24]): 72.2%
Activity (Leishmania donovani [25]): 30.6%
Activity (Leishmania donovani [26]): 23.8%
Activity (Leishmania donovani [27]): 18.7%
Activity (Leishmania donovani [28]): Active
Activity (Leishmania donovani [29]): 40.44%
fold change (FC) (Leishmania donovani [30]): 2.84
fold change (FC) (Leishmania donovani [31]): 8.92
fold change (FC) (Leishmania donovani [32]): 8.57
fold change (FC) (Leishmania donovani [33]): 4.95

Source: ChEMBL document CHEMBL5620379, “Discovery, SAR and mechanistic studies of quinazolinone-based acetamide derivatives in experimental visceral leishmaniasis” (Eur J Med Chem, 2023)
